We go through one compound from patent publication US20190054097A1, “COMPOSITIONS TARGETING SENESCENT CELLS AND THE USES THEREOF” (BioVentures, LLC, priority 2016, published 2019).

Data set [1] deals with senescent cells. Kind of data set: Cisplatin-induced peripheral neuropathy (CIPN) in C57BL/6 mice, Von Frey assay and Hot Plate Analgesia Meter. The data set is classed as in vivo. The note with it: 50 mg/kg/day i.p., 5 days per cycle, 2 cycles, mechanical sensitivity and thermal allodynia, FIG. 5-7. On the procedure:
CIPN was induced in young adult male and female C57BL/6 mice by intraperitoneal (i.p.) injection of Cisplatin (Lake Zurich, Ill., USA) at 2.3 mg/kg/d for 5 days per cycle for 2 cycles with an interval of 5 days between the cycles. The induction of CIPN was measured by analyzing the mechanical sensitivity using the Von Frey assay the day before Cisplatin treatment and on various day after Cisplatin treatment
Mice were treated as described in FIG. 1. The induction of CIPN was measured by analyzing the sensitivity to thermal allodynia using the Hot Plate Analgesia Meter on various day after Cisplatin treatment. N=10 for control group and 5 for Cisplatin-treated groups. ***p<0.001 vs. Control.
To determine the effect of senescent cells on the induction of CIPN, Cisplatin-treated mice were administered with vehicle or ABT263 at 50 mg/kg/day for 5 days per cycle for 2 cycles with an interval of 17 days between the cycles by i.p. injection at the indicated times after Cisplatin treatment. The induction of CIPN was measured by analyzing the mechanical sensitivity using the Von Frey assay (FIG. 5 and FIG. 6) and by analyzing the sensitivity to thermal allodynia using the Hot Plate Analgesia Meter (FIG. 7) the day before Cisplatin treatment and on various day after Cisplatin treatment.

The test system of data set [2] is senescent cells. As to the kind of experiment: Cisplatin-induced peripheral neuropathy (CIPN) in p16-3MR transgenic mice, Von Frey assay and Hot Plate Analgesia Meter. The data set is classed as in vivo. The note with it: GCV 25 mg/kg/day or ABT263 50 mg/kg/day i.p., 5 days per cycle, 2 cycles, FIG. 8-11. On the procedure:
CIPN was induced in young adult male and female p16-3MR mice by intraperitoneal (i.p.) injection of cisplatin (Lake Zurich, Ill., USA) at 2.3 mg/kg/d for 5 days per cycle for 2 cycles with an interval of 5 days between the cycles. The induction of CIPN was measured by analyzing the mechanical sensitivity using the Von Frey assay the day before Cisplatin treatment and on various day after Cisplatin treatment. N=5-6 mice per group.
Mice were treated as described in FIG. 8. The induction of CIPN was measured by analyzing the sensitivity to thermal allodynia using the Hot Plate Analgesia Meter on various day after Cisplatin treatment. N=5-6 mice per group.
To determine the effect of senescent cells on the induction of CIPN, cisplatin-treated mice were administered with vehicle, ganciclovir (GCV) at 25 mg/kg/day for 5 days per cycle for 2 cycles with an interval of 17 days between the cycles, or ABT263 at 50 mg/kg/day for 5 days per cycle for 2 cycles with an interval of 17 days between the cycles by i.p. injection at the indicated times after cisplatin treatment. […] The induction of CIPN was measured by analyzing the mechanical sensitivity using the Von Frey assay (FIG. 8 and FIG. 9) and by analyzing the sensitivity to thermal allodynia using the Hot Plate Analgesia Meter (FIG. 10 and FIG. 11) the day before Cisplatin treatment and on various day after Cisplatin treatment.

Another data set has as its system senescent osteocytes. As to the kind of experiment: Five-day administration to aged mice: western blot and qPCR of osteocyte-enriched femoral bone shafts. The data set is classed as in vivo, 24-month-old female mice. On the procedure:
ABT-263 or its derivative Bcl-PROTAC (or vehicles) were administered by daily i.p. injections for 5 days to 24-month-old female mice. […] We have shown that γ-H2AX, p16, GATA4, RANKL and MMP-13 increase, while OPG and Wnt10b decrease with age in bone of female and male mice (Piemontese et al., 2017 JCI Insight).
Osteocyte-enriched femoral cortical bone was prepared by removing the ends, flushing the bone marrow by centrifugation, and removal of surface cells by scraping with a scalpel. Bone fragments were immediately frozen in liquid nitrogen and pulverized. Proteins were extracted with a buffer containing 20 mM Tris-HCL, 150 mM NaCl, 1% Triton X-100, protease inhibitor mixture, and phosphatase inhibitor cocktail (Sigma-Aldrich) on ice for 30 min and then keep on −80° C. for overnight. The protein concentration of the bone extract was determined using the DC Protein Assay Kit (Bio-Rad). The extracted protein ([…] per sample) was subjected to 15% SDS-PAGE gels and transferred electrophoretically onto PVDF membranes. The membranes were blocked in 5% fat-free milk/Tris-buffered saline for 120 min and incubate with each primary antibody followed by secondary antibodies conjugated with horseradish peroxidase. […] Bound antibodies were detected with ECL reagents (Millipore), and imaged and quantified with a VersaDoc™ imaging system (Bio-Rad).
(§1) Total RNA was extracted with Ultraspec (Biotecx Laboratories) and reverse-transcribed using the High-Capacity cDNA Archive Kit (Applied Biosystems) according to the manufacturer's instructions. TaqMan quantitative real-time PCR was performed using the following primers from Applied Biosystems: Rankl (Mm00441908_m1); Mmp-13 (Mm00439491_m1); OPG (Mm00435452_m1); Wnt10b (Mm00442104_m1); IL-1α (Mm99999060_m1); Sdf-1 (Mm00445553_m1); p21 (Mm00432448_m1). Target gene expression was calculated by normalizing to the housekeeping gene ribosomal protein S2 (Mm00475528_m1) using the ΔCt method (Livak and Schmittgen, 2001).
A general note: A western blot detects proteins with antibodies after separation by electrophoresis.

The subject of data set [3] is bone marrow stromal cells. As to the kind of experiment: Five-day administration to aged mice: ex vivo bone marrow stromal cell cultures (qPCR, osteoblast and adipocyte differentiation). The data set is classed as in vivo, 24-month-old female mice.
Source text: We also isolated bone marrow stromal cells from mice treated with vehicle or the senolytics and cultured them for 5 days.
Conversely, bone marrow cells from the mice treated with senolytics cultured in the presence of adipogenic medium had decreased adipogenic potential (FIG. 14C).
as §1
Total bone marrow cells pooled from 3-5 mice from each group were cultured with 20% FBS, 1% PSG and […] of ascorbic acid in 10-cm culture dishes for 5 days. Half of the medium was replaced every 3 days. Bone marrow-derived osteoprogenitor cells were re-plated into 12-well plates and cultured with […] of ascorbic acid and 10 mM b-glycerophosphate for 21 days. Mineralized matrix was stained with 40 mM Alizarin Red solution.
Bone marrow-derived stromal cells were cultured to 70% confluence, and the media supplemented with rosiglitazone (5 nM/m1) or with 3.3% BSA in PBS as vehicle control. Medium containing ligand was changed every 2 d for 11 d. Cells were fixed in 10% formalin in PBS, rinsed, and stained for 30 min with 0.15% Oil Red 0 (Sigma) in a 55:45 mix of isopropanol and water. Cells were counterstained with 0.5% methyl green (Fisher Scientific, Fairlawn, N.J.) in 0.1 M sodium acetate, pH4. Oil Red 0 staining was quantified after extraction of the dye with 1 ml isopropanol and absorbance determination at 490 nm.
For orientation: In qPCR the cycle at which signal appears reflects the starting amount.

In a further data set the test system is osteoclast progenitors. As to the kind of experiment: Five-day administration to aged mice: osteoclast differentiation from bone marrow macrophages. The data set is classed as in vivo, 24-month-old female mice. The note with it: bone marrow macrophages from treated mice, cultured with RANKL and M-CSF for 5 days, FIG. 15A and 15B. The method, then:
In summary, short-term administration of ABT-263 or Bcl-PROTAC to aged mice decreases senescent osteoprogenitors and osteocytes, as well as the SASP and osteoclastogenesis.
Bone marrow cells were obtained by flushing the tibiae and femurs from the 24 month-old female mice with α-MEM medium (Invitrogen). After the red blood cells were removed with ACK buffer (0.01 mM EDTA, 0.011 M KHCO3, and 0.155 M NH4Cl, pH 7.3), we suspended the cells in α-MEM complete media containing 10% (v/v) fetal bovine serum, 100 U ml-1 penicillin, and 100 μg ml-1 streptomycin and incubated the cells for 24 h in the presence of 10 ng ml-1 M-CSF. We collected the non-adherent cells and cultured with 30 ng ml-1 M-CSF for 3 days to generate bone marrow-derived macrophages. […] We fixed the osteoclast cultures with 10% neutral buffered formalin for 15 min and stained for tartrate-resistant acid phosphatase (TRAP) using the Leukocyte Acid Phosphatase Assay Kit, following the manufacturer's instructions (Sigma-Aldrich). For all assays we plated cells in triplicate.

The test system of a further data set is platelets. The settings on record: administration to subjects; platelets rely on Bcl-xl for survival; cited from earlier work.
[4] abbreviates: femoral extracts, qPCR, FIG. 12B.
[5] abbreviates: bone marrow-derived stromal cells from treated mice, ex vivo culture, FIG. 13.

`CC1(C)CCC(c2ccc(Cl)cc2)=C(CN2CCN(c3ccc(C(=O)NS(=O)(=O)c4ccc(N[C@H](CCN5CCOCC5)CSc5ccccc5)c(S(=O)(=O)C(F)(F)F)c4)cc3)CC2)C1` [ABT-263, (R)-4-(4-((4′-chloro-4,4-dimethyl-3,4,5,6-tetrahydro-[1,1′-biphenyl]-2-yl-)methyl)piperazin-1-yl)-N-((4-((4-morpholino-1-(phenylthio)butan-2-yl)amin-o)-3-((trifluoromethyl)sulfonyl)phenyl)sulfonyl)benzamide]: the “Reversal of cisplatin-induced peripheral neuropathy” value with senescent cells [1] is on record as “reversed Cisplatin-induced peripheral neuropathy (CIPN)”. Further, the “Reversal of cisplatin-induced peripheral neuropathy” value in the data set with senescent cells [2] is “reversed cisplatin-induced peripheral neuropathy (CIPN)”. Besides, in the data set with senescent osteocytes (setting [4]), the “mRNA for OPG” value was “increased the mRNA for OPG”; the “mRNA for RANKL and MMP13” value was “decreased the mRNA for RANKL and MMP13”. In addition, the “Markers of cell senescence: protein levels of γ-H2AX, p16 and GATA4” value in the data set with senescent osteocytes (osteocyte-enriched femoral bone shafts, daily i.p. for 5 days, western blot, FIG. 12A) is listed as “decreased marker of cell senescence”. Also, in data set [3] (setting [5]), the “Expression of p21” value is “decreased expression of p21”; the “mRNA levels of RANKL, MMP-13, IL-1a and SDF-1” value was “decreased mRNA levels of RANKL and MMP-13, as well as IL-1a and SDF-1”. In addition, the “Osteoblastogenic potential (Alizarin Red staining)” value in data set [3] (stromal cells from treated mice, 21 days in osteogenic medium, FIG. 14A and 14B) is reported as “promotes osteoblastogenesis”. Further, in the data set with osteoclast progenitors, the “Osteoclastogenic potential (TRAP-positive multinucleated cells)” value was “decreased osteoclastogenic potential”. Also, the Thrombocytopenia entry in the data set with platelets is “cause thrombocytopenia”.
